Assay results from patent publication US20180360799A1, “Nitrofuran Derivatives That Induce Apoptosis in Breast Cancer Cells by Activating Protein Expression” (Oklahoma Medical Research Foundation, priority 2015, published 2018).

Columns and labels:
p-eIF2α = assay: eIF2α phosphorylation by Western blotting; type: cell-based, human; details: 10 μM, indicated times
Procedure: (§1) FIG. 3D is an image showing ATF4 and p-EIF2α protein levels after treatment with a 5-nitrofuran-2-amide derivative compound 3d. Cells were treated with compound 3d (10 μM) for the indicated times, and ATF4 and p-eIF2a protein levels were analyzed by Western blotting. α-Tubulin was used as a loading control. The data shown are representative of 3 independent studies.
(§2) Prolonged or severe ER stress activates CHOP expression primarily through the PERK branch of the unfolded protein response, although the IRE1α and ATF6 branches also contribute.^5, 18 The 5-nitrofuran-2-amide derivatives could induce CHOP expression by acting as an ER stressor that activates all three branches of unfolded protein response or by preferentially activating a select branch of unfolded protein response. To distinguish between these possibilities, the inventor investigated which branches of the unfolded protein response were affected by compound 3d. Activation of the PERK pathway by ER stress leads to phosphorylation of eIF2α, followed by activation of the transcription and translation of the transcription factor ATF4, a 5′-upstream ORF-containing gene, and ATF4-mediated CHOP expression.^5, 22 To determine whether the PERK pathway is involved in compound 3d-mediated CHOP induction, ATF4 expression and eIF2a phosphorylation in HCC-1806 cells by qRT-PCR and Western blotting were analyzed. […]

[1] = test system: UPRE-Luciferase (UPRE-Luc) reporter; assay: UPRE-Luc reporter assay in HEK293 cells; type: cell-based, human; details: 3d 10 μM or Tm 1 μg/mL, 24 h
Procedure: FIG. 3G is a graph showing HEK293 cells stably expressing CHOP-Luc, ERSE-Luc, or UPRE-luc reporters were treated with DMSO, a 5-nitrofuran-2-amide derivative, or tunicamycin. HEK293 cells stably expressing CHOP-Luc, ERSE-Luc, or UPRE-luc reporters were treated with DMSO, compound 3d (10 μM), or Tm (1 μg/mL) for 24 h, and luciferase activity was measured using the Bright-Glo assay. Results are the means of 4 replicate wells and are representative of 3 independent experiments.
The inventor next asked whether the IRE1α and ATF6 branches of the unfolded protein response were also activated by compound 3d treatment of TNBC cells. […] XBP1 mRNA splicing, as measured by XBP1s levels, increased only slightly in the first 24 h after compound 3d treatment of HCC-1806 cells (from 11% of total XBP1 at 0 h to 15˜20% at 2˜24 h). […] Next, it was determined whether compound 3d activates the ATF6 pathway by evaluating its effect on the activity of an ER stress response elements (ERSE)-Luc reporter stably established in HEK293 cell line.
The HEK293T CHOP reporter cell line (CHOP-Luc) was previously described.^21 HEK293T cells were stably transfected with ERSE-Luciferase^25 and UPRE-Luciferase^23 reporters to generate ERSE-Luc and UPRE-Luc reporter cell lines, respectively. […] Luciferase activity was measured with a Bright-Glo kit 24 h later.

HCC-1143 cells = assay: Cell viability, CellTiter-Glo, HCC-1143; type: cell-based; details: Homo sapiens, HCC1143, 72 h; Table 2; cancer cell viability, 3 d treatment; read-out: HCC-1143 IC50
Procedure: Given the known functions of CHOP in ER stress-induced apoptosis^16, 17 and in regulating cancer cell death,^6, 19, 20 the inventor investigated whether compound 1 affects the viability of TNBC cells. Three human TNBC cell lines, HCC-1806, HCC-1143, and HCC-38, were treated with doses of 1 ranging from 0.125 μM to 20 μM and their viability was assessed using the CellTiter-Glo assay, which measures intracellular ATP levels.
HCC-1806, HCC-1143, or HCC-38 cells were seeded at 3×10^3 cells/well in a 384-well plate and treated with compounds at the indicated concentrations. After 3 d treatment, the medium was aspirated and 20 μL/well of CellTiter-Glo reagent was added. Cell viability was measured with an EnVision multilabel plate reader. The IC50 value for cell viability of each compound was calculated with GraphPad Prism (La Jolla, Calif., US).

ATF4 protein = ATF4 protein by Western blotting; type: cell-based, human; details: 10 μM, indicated times
Procedure: as §1, §2

IC50 (HCC-1143 cells): 2100 nM
Compound: CC1CCN(c2ccc(NC(=O)c3ccc([N+](=O)[O-])o3)cc2)CC1 [Compound 3d]
phosphorylation of eIF2α (p-eIF2α): substantially increased the phosphorylation of eIF2a
increase of UPRE-Luc luciferase activity [1]: less than 2 fold
ATF4 expression, protein (ATF4 protein): significantly increased ATF4 expression
